Results reported in US20250313900A1, “COMPOSITIONS AND THERAPEUTIC AGENTS FOR MODULATING INFLAMMATORY RESPONSES ON BOTH TUMOR AND IMMUNE CELLS” (THE METHODIST HOSPITAL, priority 2022, published 2025).

Columns and labels:
MHC II = details: IFNγ stimulation
[1] = target: T1, Tumor necrosis factor receptor-associated factor-6 (TRAF6) (in HCC827-CT cells) (human, UniProt Q9Y4K3 1-522); test: co-immunoprecipitation and western blot, HCC827-CT cells
T1 sequence (looked up): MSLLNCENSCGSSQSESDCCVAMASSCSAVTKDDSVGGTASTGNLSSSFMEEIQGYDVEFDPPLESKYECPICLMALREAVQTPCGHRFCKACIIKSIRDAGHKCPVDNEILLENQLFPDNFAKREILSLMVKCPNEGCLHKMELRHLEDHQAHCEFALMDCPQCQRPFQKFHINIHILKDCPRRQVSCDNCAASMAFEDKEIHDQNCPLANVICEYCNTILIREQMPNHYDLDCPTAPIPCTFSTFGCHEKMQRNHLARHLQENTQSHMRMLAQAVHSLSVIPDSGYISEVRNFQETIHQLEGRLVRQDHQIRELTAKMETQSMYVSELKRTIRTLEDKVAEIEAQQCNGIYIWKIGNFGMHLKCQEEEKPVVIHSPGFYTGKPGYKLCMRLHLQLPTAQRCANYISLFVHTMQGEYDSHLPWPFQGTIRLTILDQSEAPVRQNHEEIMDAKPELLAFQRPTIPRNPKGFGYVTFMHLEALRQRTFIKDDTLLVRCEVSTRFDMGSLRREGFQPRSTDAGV

CCN(CC)CCCC(C)Nc1ccnc2cc(Cl)ccc12 (centres unmarked) [chloroquine]
higher levels of surface MHC class II in CMTM4 KO cells (MHC II): abolished

B1: CMTM6 (in HCC827-CT cells) (other, human, UniProt Q9NX76 1-183, looked up)
chain: MENGAVYSPTTEEDPGPARGPRSGLAAYFFMGRLPLLRRVLKGLQLLLSLLAFICEEVVSQCTLCGGLYFFEFVSCSAFLLSLLILIVYCTPFYERVDTTKVKSSDFYITLGTGCVFLLASIIFVSTHDRTSAEIAAIVFGFIASFMFLLDFITMLYEKRQESQLRKPENTTRAEALTEPLNA
binding result [1]: no binding
